According to a melting point compilation (Tetko et al.; mined from patent text by program, amines drawn as free bases though some values may be those of a salt):

melting point [°C]	Structure (SMILES)
135	O=C(NS(=O)(=O)c1cccc([N+](=O)[O-])c1)c1ccccc1Cl
115 to 117	COC(=O)c1cccc([N+](=O)[O-])c1NCc1ccc(-c2ccccc2-c2nnnn2Cc2ccccc2)cc1
173 to 175	COc1cn(C)cc(-c2cccc(C(F)(F)F)c2)c1=O
145 to 147	O=C(O)C=Cc1cccc(OCc2nc(-c3ccccc3)c(-c3ccccc3)o2)c1
58 to 60	COc1ccccc1Oc1ccc(Br)cc1OC
246 to 247	CCC(C)(C)c1cc(-c2ccc(F)c(C=C3SC(N4CCOCC4)=NC3=O)c2)ccc1O
81 to 82	O=C(c1ccccc1F)c1cc(Cl)ccc1CSc1ccccc1
116 to 118	Cc1c(OC(C)(C)C(=O)O)ccc(OCCCC#Cc2ccc(OC(F)(F)F)cc2)c1F
136 to 138	COC(=O)c1ccc(Cc2c[nH]c3ccc(C(=O)OC)cc23)c(OC)c1
182	CN(Cc1cc(C(F)(F)F)cc(C(F)(F)F)c1)C(=O)c1nc(N)ncc1-c1ccccc1
104 to 106	CCCc1nn(C)c2c(=O)n(CCCc3ccc(OC(C)(C)C(=O)O)cc3)c(C)nc12
65 to 66	CCOC(=O)c1nc(-c2ccc(OC)cc2)sc1C
157 to 158	CC(=O)N(C)CCc1ccc(C=CC(=O)O)cc1
194	N#CC(Cc1ccccc1)(Cc1ccccc1)C(=O)O
222 to 223	CN(C)S(=O)(=O)c1ccc(Oc2ccc([N+](=O)[O-])cc2C#N)cc1
172 to 174	CCOC(=O)c1c(Cn2cncn2)nc2sc3cnccc3c2c1-c1ccc(OC)c(OC)c1
184 to 186	NC(=O)CNC(=O)c1cccc(-c2ccc3c(c2)N(c2ccc(Cl)cc2Cl)CC3)c1
270 to 272	NCCc1ccc(CCC(=O)O)cc1
65 to 67	COc1ccc(Sc2ccccc2CC#N)cc1
91 to 94	COc1ccc(C(=O)n2c(C)c(Cc3cc(=O)n(-c4cccc(C(F)(F)F)c4)[nH]3)c3cc(OC)ccc32)cc1
73 to 77	CCc1c(-c2ccc(CO)cc2)c2cc(C(C)=O)c3cccc1n32
111 to 113	Cc1ccc(Cn2c(=O)cc(C(C)C(=O)Oc3ccccc3)c3cc(C)ccc32)cc1 (configuration not stated)
239 to 240	O=C(O)Cc1c(C(=O)c2cc3ccccc3cn2)[nH]c2ccc(Cl)cc12
219	CCOC(=O)c1ncn2c(C(F)F)cc(-c3ccc(C(F)(F)F)cc3)nc12
103 to 105	CCOCc1oc(-c2ccc(C(F)(F)F)cc2)cc1C(=O)OCC
257 to 260	CC(=O)Oc1cccc2oc(C(=O)Nc3ccc(CC4SC(=O)NC4=O)cc3)cc(=O)c12 (configuration not stated)

More lines, now with the values behind:

Structure (SMILES)	melting point [°C]
c1ccn(Nc2ncnc3c2ncn3-n2cccc2)c1	230 to 232
Oc1ccc(C2(c3ccc(O)c(Cl)c3)CCCCCCCCCCC2)cc1Cl	167 to 169
N#Cc1nn(-c2c(Cl)cc(C(F)(F)F)cc2Cl)cc1C1CC(F)(F)C1	128 to 129
CC(C)[C@H](NC(=O)NCc1cccnc1)C(=O)NC(Cc1ccccc1)C(O)C(Cc1ccccc1)NC(=O)[C@@H](NC(=O)OCc1ccccc1)C(C)C (some centres not stated)	205 to 206
NC(=O)[C@@H]1[C@H](Nc2c(Cl)cnc3[nH]c(-c4cnn(C5CCNCC5)c4)nc23)[C@H]2C=C[C@@H]1C2	203 to 205
O=C(O)c1ccc(=O)n(CCCNC(=O)c2ccccn2)c1	180 to 182
COC(OC)c1ncc[nH]1	122
Cc1cc(C)nc(NC(=NO)NS(=O)(=O)c2ccccc2Cl)n1	165 to 167
CC1(C)c2cc(C#N)ccc2OC1O (configuration not stated)	103 to 122
N#Cc1c(Cl)cncc1Cl	117 to 118
O=C(O)CCCCC(=O)c1ccc2cc(O)ccc2c1	191 to 193
CNc1cc(Cl)c(CO)c(Cl)c1	108 to 111
CS(=O)(=O)NN(c1ccc([N+](=O)[O-])cc1N)S(=O)(=O)c1cccc(S(=O)(=O)F)c1	204 to 209
CCOC(=O)NN=C(CC)c1ccncc1	147
CC1CCC(C(C)C)C(OCC(=O)OC2CC(=O)C(CCCCCCC(=O)O)=C2C=Cc2ccccc2)C1 (configuration not stated)	103 to 104
CC(=O)NC1CCCC1CC(Cl)C#N (configuration not stated)	114 to 117
CCc1ccc(O)c(C#N)c1	95 to 98
CCN(c1ccc(OCc2ccc(OC(F)(F)F)cc2)cc1)C1CCN(c2ccc(OC[C@H]3CCn4cc([N+](=O)[O-])nc4O3)cc2)CC1	95.2 to 97
CCCCCCC(C)(C)c1cc(OC)c(C2=C[C@@]3(C)CC[C@@H]2C3(C)C)c(OC)c1	32 to 33
CCOc1nn(C)c(C(F)(F)F)c1CS(=O)(=O)C1=NOC(C)(C)C1	124 to 125
O=Cc1cc(O)c(O)c(C=O)c1CCCCC(=O)O	148 to 152
CCSc1nccn1N1CCN(c2ccc(OC)cc2)CC1	112
O=c1c2ccc(-c3nnn[nH]3)cc2oc2ccc(-c3nnn[nH]3)cc12	> 400

Structure (SMILES)	melting point [°C]
COc1ccc(C2=CC=CCC2(OC(C)C)C(=O)O)c(OC)c1 (configuration not stated)	121 to 122
CCSC(c1ccc(Cl)cc1Cl)C(C(O)C(C)(C)CF)n1cncn1 (configuration not stated)	182
CCC1(CO)COC2(CC(c3ccccc3)SC(c3ccccc3)C2)OC1 (configuration not stated)	128
CCOC(=O)C1=CC(OC)(C(C)(C)C)N(c2ccc(Cl)cc2Cl)N1 (configuration not stated)	130 to 133
N#Cc1nc(-c2cnn(-c3ccc(C(F)(F)F)cc3[N+](=O)[O-])c2Br)[nH]c1C#N	86 to 90
O=S1(=O)CCC(=NO)C1=NO	181
Cc1cc(C(=O)O)ccc1-c1cnc2[nH]c(=O)n(CC3CCCCC3)c2n1	244 to 247
N#CC(C#N)=CNc1ccc(C(N)=O)cn1	215 to 218
CCCC/C=C\c1c([C@H](O)[C@H](CCCC)NC(=O)[C@H](CC(C)C)NC(=O)OCC2CCCCC2)c1=O	138 to 140
CS(=O)(=O)N(Cc1ccncc1)Cc1ccccc1F	69 to 70
CCOC(=O)c1cn(-c2ccc([N+](=O)[O-])cn2)cn1	212 to 214
O=C(CCC1CCCC1)Nc1cccc2ncccc12	135 to 138
O=c1cc(O)nc2sc(CCC3CCCCC3)nn12	215 to 219
COC(=O)c1sc(S(C)(=O)=O)cc1O	138 to 140
CC(C)C(NC(=O)Cn1cccc(NC(=O)Cc2ccccc2)c1=O)C(=O)C(F)(F)F (configuration not stated)	70 to 72
CCOC(=O)CCNCC(O)COc1cccc(C#N)c1 (configuration not stated)	95
CC(=O)NNc1ccc([N+](=O)[O-])cn1	226 to 227
COc1ccc(C2(C#Cc3ccc(Cl)cc3)CCC(=O)CC2)cc1OC1CCCC1	104 to 105
CC(C)(CNCCCCCCNCC(C)(C)[N+](=O)[O-])[N+](=O)[O-]	26 to 27
Cn1nnnc1-c1cnc2cc(Br)ccc2c1O	> 300
O=Cc1cc(C=O)c(C#Cc2ccccc2)cc1C#Cc1ccccc1	170 to 172
CN1C(=O)[C@H](NC(=O)CNc2ccc(C(F)(F)F)cc2)N=C(c2ccccc2)c2ccccc21	218 to 219
O=C(NCc1ccc(Cl)cc1)c1cn(CCN2CCOCC2)c2ccc(C=CCO)cc2c1=O	146 to 148
